Data from patent US20240390374A1, “MOCETINOSTAT IN COMBINATION WITH CHEMOTHERAPY TO TREAT RHABDOMYOSARCOMA” (The Regents of the University of California, priority 2021, published 2024).
pIC50: −log10 of the molar value.

Legend:
[1] = test system: CYP2E1, CYP3A, CYP2C8, CYP2C19; settings: cited from earlier work
[2] = test system: follicular lymphoma and diffuse large B cell lymphoma; settings: cited from earlier work
[3] = test system: refractory and/or recurrent rhabdomyosarcoma; type: in vivo, human; settings: dose escalation phase; orally 3 times weekly with vinorelbine 25 mg/m2 IV day 1, 8, 15 of 21 day cycles
Description: Methods: This is an investigator initiated Phase 1 single center, open-label, dose escalation/expansion clinical trial. A modified intent to treat approach is used for efficacy analysis for a target accrual of 20 subjects in the dose expansion cohort. Eligibility criteria include subjects >/=18 years old (yo) for the phase 1 dose escalation cohort and >/=12 years old for the phase 1 dose expansion cohort with a diagnosis of R/R RMS. Mocetinostat 40 mg, 70 mg or 90 mg was taken orally 3 times weekly with vinorelbine 25 mg/m2 IV on day 1,8, and 15 in 21 day cycles. PEG-filgrastim or biosimilar was added if subject experienced grade 3/4 neutropenia in a prior cycle. The maximum tolerated dose of mocetinostat in the dose escalation phase was 40 mg, which was selected as the dose for expansion cohort. Subjects were treated until disease progression by RECIST 1.1 or unacceptable toxicity.

CYP2C9 = CYP2C9 (Homo sapiens, UniProt P11712); settings: cited from earlier work
Chain of CYP2C9 (P11712 whole entry): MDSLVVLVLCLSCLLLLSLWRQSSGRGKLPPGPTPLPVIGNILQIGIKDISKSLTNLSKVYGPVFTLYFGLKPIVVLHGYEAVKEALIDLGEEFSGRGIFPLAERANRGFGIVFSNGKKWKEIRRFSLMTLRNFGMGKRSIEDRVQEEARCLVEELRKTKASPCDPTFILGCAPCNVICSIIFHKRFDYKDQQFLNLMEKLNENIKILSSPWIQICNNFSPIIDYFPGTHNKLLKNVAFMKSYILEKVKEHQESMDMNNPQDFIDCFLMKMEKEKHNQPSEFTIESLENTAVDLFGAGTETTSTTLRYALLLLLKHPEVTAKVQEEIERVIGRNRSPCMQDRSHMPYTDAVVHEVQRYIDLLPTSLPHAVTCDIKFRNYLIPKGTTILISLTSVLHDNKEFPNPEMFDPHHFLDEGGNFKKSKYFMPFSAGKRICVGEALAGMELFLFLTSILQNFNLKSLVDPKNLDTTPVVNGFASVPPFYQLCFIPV

solid tumors = settings: three times per week, with gemcitabine; cited from earlier work
[4] = test system: Rhabdomyosarcoma cell lines; assay: IC50 for mocetinostat across individual cell lines from different sarcoma subtypes (FIG. 1); type: cell-based
[5] = human, in vivo; cited from earlier work
P-gp = P-gp (Homo sapiens, UniProt P08183); settings: cited from earlier work
Chain of P-gp (P08183 whole entry): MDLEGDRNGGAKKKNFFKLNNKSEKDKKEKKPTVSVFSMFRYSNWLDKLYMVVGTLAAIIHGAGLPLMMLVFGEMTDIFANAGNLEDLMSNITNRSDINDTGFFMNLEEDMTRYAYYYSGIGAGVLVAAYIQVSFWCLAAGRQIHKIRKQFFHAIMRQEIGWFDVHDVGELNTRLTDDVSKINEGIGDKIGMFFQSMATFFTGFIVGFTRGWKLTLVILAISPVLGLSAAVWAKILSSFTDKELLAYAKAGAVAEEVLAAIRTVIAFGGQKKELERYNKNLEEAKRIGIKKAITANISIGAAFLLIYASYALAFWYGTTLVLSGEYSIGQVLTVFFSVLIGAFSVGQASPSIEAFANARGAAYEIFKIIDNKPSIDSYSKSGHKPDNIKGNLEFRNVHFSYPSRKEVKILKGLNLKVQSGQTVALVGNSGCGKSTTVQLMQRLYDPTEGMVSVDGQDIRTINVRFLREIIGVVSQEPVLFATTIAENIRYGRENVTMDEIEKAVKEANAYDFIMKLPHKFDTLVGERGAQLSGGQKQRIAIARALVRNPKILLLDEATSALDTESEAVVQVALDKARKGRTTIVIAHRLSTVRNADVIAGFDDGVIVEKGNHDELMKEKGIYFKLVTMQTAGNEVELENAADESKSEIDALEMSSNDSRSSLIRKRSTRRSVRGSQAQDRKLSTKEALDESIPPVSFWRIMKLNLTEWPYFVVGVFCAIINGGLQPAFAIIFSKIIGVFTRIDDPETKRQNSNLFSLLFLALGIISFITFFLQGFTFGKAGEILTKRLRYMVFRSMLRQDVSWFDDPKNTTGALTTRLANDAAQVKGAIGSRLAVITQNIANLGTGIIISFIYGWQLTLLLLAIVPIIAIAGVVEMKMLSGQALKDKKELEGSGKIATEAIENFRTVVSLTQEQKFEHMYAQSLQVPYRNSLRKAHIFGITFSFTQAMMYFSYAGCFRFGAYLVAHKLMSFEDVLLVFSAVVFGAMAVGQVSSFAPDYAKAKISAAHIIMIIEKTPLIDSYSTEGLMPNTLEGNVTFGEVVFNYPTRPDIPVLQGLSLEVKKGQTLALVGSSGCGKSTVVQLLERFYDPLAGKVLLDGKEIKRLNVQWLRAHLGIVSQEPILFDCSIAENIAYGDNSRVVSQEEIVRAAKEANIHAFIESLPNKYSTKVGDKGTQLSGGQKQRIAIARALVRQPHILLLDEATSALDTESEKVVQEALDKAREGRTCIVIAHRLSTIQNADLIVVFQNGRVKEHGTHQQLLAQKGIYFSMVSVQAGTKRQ

advanced solid tumors = settings: cited from earlier work
[6] = cited from earlier work
[7] = in vivo; cited from earlier work
[8] = orally three times per week for 2 of every 3 weeks

Nc1ccccc1NC(=O)c1ccc(CNc2nccc(-c3cccnc3)n2)cc1 [mocetinostat]
metabolizing enzymes [1]: metabolized by CYP2E1 and CYP3A and possibly by CYP2C8 and CYP2C19 | patients with pericardial events considered related to mocetinostat ([2]; 5 events: pericardial effusion, pericarditis, cardiac tamponade): four | Grade ≥3 treatment-related fatigue ([2]; 70-110 mg three times a week): 23.6% | Grade ≥3 treatment-related neutropenia ([2]; 70-110 mg three times a week): 15.3% | Grade ≥3 treatment-related thrombocytopenia ([2]; 70-110 mg three times a week): 12.5% | patients with Grade ≥3 treatment-related AEs ([2]; 72 patients, starting doses 70-110 mg three times a week, 4 week cycles): 56.9% | maximum tolerated dose of mocetinostat [3]: 40 mg | CYP2C9 inhibition (CYP2C9): strong CYP2C9 inhibitor | MTD/RP2D of mocetinostat (solid tumors): 90 mg | pIC50 [4]: > 7.00 | Half-life of elimination [5]: about 10 hours | accumulation with repeated dosing [5]: little to no accumulation | P-gp interaction (P-gp): a substrate and an inhibitor of P-gp | patients with dose limiting toxicities (DLTs) (advanced solid tumors; at the 45 mg/m2/day dose): 27% | PK interpatient variability (advanced solid tumors; effect of low pH beverages): interpatient variability which improved when mocetinostat was coadministered with low pH beverages | hematologic AEs (advanced solid tumors; human, in vivo): no hematologic AEs | MTD/RP2D as equivalent fixed dose (advanced solid tumors; [8]): about 90 mg/day | maximum tolerated dose (MTD)/recommended phase II dose (RP2D) (advanced solid tumors; [8]): 45 mg/m2/day

CCC1=C[C@@H]2CN(C1)Cc1c([nH]c3ccccc13)[C@@](C(=O)OC)(c1cc3c(cc1OC)N(C)[C@H]1[C@@](O)(C(=O)OC)[C@H](OC(C)=O)[C@]4(CC)C=CCN5CC[C@]31[C@@H]54)C2 [vinorelbine, methyl (1R,9R,10S,11R,12R,19R)-11-acetyloxy-12-ethyl-4-[(12S,14R)-16-ethyl-12-methoxycarbonyl-1,10-diazatetracyclo[12.3.1.03,11.04,9]octadeca-3(11),4,6,8,15-pentaen-12-yl]-10-hydroxy-5-methoxy-8-methyl-8,16-diazapentacyclo[10.6.1.01,9.02,7.016,19]nonadeca-2,4,6,13-tetraene-10 carboxylate]
stability of unopened vials ([6]; at temperatures up to 25° C. (77° F.)): up to 72 hours | time diluted vinorelbine may be used ([6]; normal room light, polypropylene syringes or polyvinyl chloride bags at 5-30° C.): up to 24 hours | grade II-IV nausea and vomiting [7]: < 10% | grade III-IV neurotoxicity [7]: rare
